According to the NIST ThermoML archive (doi:10.1016/j.tca.2015.04.021):
Numbers after ± are expanded uncertainties.

Assay: molar enthalpy of vaporization or sublimation
Conditions: Liquid, TGA

Work on `Cn1cc[n+](CCC(F)(F)C(F)(F)F)c1.O=S(=O)([N-]S(=O)(=O)C(F)(F)F)C(F)(F)F` yielded a molar enthalpy (527.7 K) of 27.2 ± 0.621 kcal/mol.
Work on `Cn1cc[n+](CCC(F)(F)C(F)(F)C(F)(F)C(F)(F)C(F)(F)C(F)(F)C(F)(F)C(F)(F)F)c1.O=S(=O)([N-]S(=O)(=O)C(F)(F)F)C(F)(F)F` yielded a molar enthalpy (531.8 K) of 30.5 ± 0.669 kcal/mol.
Compound `Cn1cc[n+](CCC(F)(F)C(F)(F)C(F)(F)C(F)(F)C(F)(F)C(F)(F)F)c1.O=S(=O)([N-]S(=O)(=O)C(F)(F)F)C(F)(F)F` has a molar enthalpy (532.3 K) of 30.1 ± 0.669 kcal/mol.
